Assay results from patent US20210363110A1, “4-METHYLDIHYDROPYRIMIDINONE COMPOUNDS AND PHARMACEUTICAL USE THEREOF” (Japan Tobacco Inc., priority 2018, published 2021).

Key:
[1] = Metabolic stability in liver microsomes, monkey; type: in vitro ADME; settings: residual ratio of unreacted substance, 0.2 mg/mL microsomes, NADPH generating system
Protocol: A test solution was prepared by diluting 10 mM DMSO solution of a test substance with acetonitrile by 100 times.
Human and animal liver microsomes (SEKISUI XENOTECH; Human (H2610), Rat (R1000), Mouse (M1000), Monkey (P2000), Dog (D1000)) were adjusted with potassium phosphate buffer (pH 7.4) to 0.2 mg/mL in the reaction system. Then, 1% of the solution of a test substance prepared was added to the reaction system. Thereto was added an NADPH generating system (prepared according to the method of Non Patent Literature 28), and the metabolic reaction was initiated. At a designated time, 0.1% formic acid-acetonitrile/water (3:1) was added thereto, and the reaction was terminated.
The sample after termination of the reaction was separated by centrifugation (1400 g, 20 min.), and then the supernatant was measured by LC/MS (UPLC-SQD (waters)) to calculate a residual ratio of unreacted substances.

human RORγ = target: T1, human RORγ (Homo sapiens, UniProt P51449); assay: Reporter gene assay for inhibitory effect against RORγ transcriptional activity (GAL4-hRORγ LBD, luciferase, CHO cells); type: cell-based; settings: pFA/hRORγ + pG5-Luc, 2 days incubation
T1 construct: from Ser253 to Lys518 for human RORγ; expressed in transfected cells; host or cells: CHO cells (transient co-transfection with pG5-Luc)
T1 sequence (P51449 253-518): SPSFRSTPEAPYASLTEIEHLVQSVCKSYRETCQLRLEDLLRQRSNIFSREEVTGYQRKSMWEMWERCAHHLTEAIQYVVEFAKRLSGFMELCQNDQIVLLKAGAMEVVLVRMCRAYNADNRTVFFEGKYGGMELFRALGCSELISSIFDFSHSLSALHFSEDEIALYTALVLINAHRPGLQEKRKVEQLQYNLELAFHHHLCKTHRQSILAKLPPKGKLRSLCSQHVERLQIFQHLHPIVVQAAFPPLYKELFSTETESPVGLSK
Protocol: (§1) Inhibitory effect against RORγ transcriptional activity was assessed by reporter gene assay for test compounds.
(§2) cDNAs encoding human and mouse RORγ ligand binding domains (LBD) were obtained based on the sequences of human RORγ (Genbank registered number NM_005060.3) and mouse RORγ (Genbank registered number NM_011281.2) (LBD sequences: from Ser253 to Lys518 for human RORγ; from Ile251 to Lys516 for mouse RORγ).
(§3) LBD cDNAs of human and mouse RORγ were inserted into pFA-CMV vector (Agilent Technologies, Inc.), which expresses GAL4-DNA binding domain fusion protein. The resulting plasmids are hereinafter referred to as pFA/hRORγ plasmid and pFA/mRORγ plasmid, respectively. […]
(§4) Cell viability was tested by luminescence method with CellTiter-Glo (Promega). […] Ten minutes after the addition, luminescence was measured for each well with a microplate reader. The luminescence count in the cells treated with 0.2% DMSO alone was defined as 100%, and the cell viability after treatment with the test compound was calculated as a percentage (%-of-control) based on the value of 0.2% DMSO alone. When the cell viability was 70% or less, a test compound was assessed to have cytotoxicity.
(§5) RORγ transcriptional activity was detected as the intracellular luciferase activity using SteadyLite HTS Reporter Gene Assay System (Perkin Elmer). […]

mouse RORγ = target: T2, mouse RORγ (Mus musculus, UniProt P51450); assay: Reporter gene assay for inhibitory effect against RORγ transcriptional activity (GAL4-mRORγ LBD, luciferase, CHO cells); type: cell-based; settings: pFA/mRORγ + pG5-Luc, 2 days incubation
T2 construct: from Ile251 to Lys516 for mouse RORγ; expressed in transfected cells; host or cells: CHO cells (transient co-transfection with pG5-Luc)
T2 sequence (P51450 251-516): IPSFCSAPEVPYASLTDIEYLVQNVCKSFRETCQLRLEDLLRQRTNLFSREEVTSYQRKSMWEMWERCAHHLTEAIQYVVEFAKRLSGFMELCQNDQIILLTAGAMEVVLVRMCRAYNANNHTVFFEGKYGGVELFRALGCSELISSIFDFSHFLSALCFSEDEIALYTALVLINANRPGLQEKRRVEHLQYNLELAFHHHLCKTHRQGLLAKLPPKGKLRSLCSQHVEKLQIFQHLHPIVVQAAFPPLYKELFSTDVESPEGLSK
Protocol: as §1, §2, §3, §4, §5

| SMILES | Metabolic stability in liver microsomes at 60 min., Monkey [1] [%] | EC50 (human RORγ) [nM] | EC50 (mouse RORγ) [nM] |
| --- | --- | --- | --- |
| CC[C@H](C)C1=CN(C23CC(C(=O)O)(C2)C3)C(=O)N[C@@]1(C)c1ccc([C@@H]2C[C@H]2C(C)(C)C)c(Cl)c1 [Compound (2), 3-{(S)-5-((S)-sec-Butyl)-4-[4-((1R,2R)-2-tert-butyl-cyclopropyl)-3-chloro-phenyl]-4-methyl-2-oxo-3,4-dihydro-2H-pyrimidin-1-yl}bicyclo[1.1.1]pentane-1-carboxylic acid] | 96 | 14 | 29 |
| CC(C)C1=CN(C23CC(C(=O)O)(C2)C3)C(=O)N[C@@]1(C)c1ccc([C@@H]2C[C@H]2C(C)(C)C)c(Cl)c1 [Compound (1), 3-{(S)-4-[4-((1R,2R)-2-tert-Butyl-cyclopropyl)-3-chloro-phenyl]-5-isopropyl-4-methyl-2-oxo-3,4-dihydro-2H-pyrimidin-1-yl}bicyclo[1.1.1]pentane-1-carboxylic acid] | 93 | 23 | 23 |
